According to article doi:10.1101/2025.05.02.651913 (bioRxiv, 2025):
Where two headings read alike, the source gives them in different places.

Tests used:
[1] = tested on: MPXV strain hMPXV/USA/MA001/2022 (Lineage B.1, Clade IIb); format: cell-based, Mpox virus (MPXV)
MPXV (2022 Clade IIb) [2] = format: cell-based, Mpox virus (MPXV)
cowpox virus = details: cited from earlier work
vaccinia virus = details: cited from earlier work
MPXV (2022 Clade IIb) [3] = assay: microbe, parasite or virus in culture; format: cell-based, Mpox virus (MPXV); details: Monkeypox virus, read-out: IC50 (inhibition of MPXV infection)
in vitro = details: human
MPXV [4] = tested on: MPXV; design: species or system C57BL/6 mice; details: mouse, in vivo
MPXV [5] = details: in vivo; cited from earlier work
MPXV [6] = details: cited from earlier work
[7] = in vivo; cited from earlier work
MPXV [8] = format: cell-based, Mpox virus (MPXV)
Mpox-related lesions = details: human, in vivo; cited from earlier work
MPXV Clade IIb = format: cell-based, Mpox virus (MPXV)
[9] = human, in vivo; cited from earlier work
phospho-STING = format: cell-based, human
phospho-NF-κB = format: cell-based, human

COc1ncc(-c2ccc3nccc(-c4ccnnc4)c3c2)cc1NS(=O)(=O)c1ccc(F)cc1F [GSK2126458, Omipalisib]
Duplicate of Duplicate of Hits: No CPE [1]: 1 | antiviral activity at lower concentrations (MPXV (2022 Clade IIb) [2]): potent antiviral activity

Cc1ccc(C(=O)Nc2ccc(CN3CCN(C)CC3)c(C(F)(F)F)c2)cc1C#Cc1cnc2[nH]ncc2c1 [GZD824, Olverembatinib (dimesylate)]
Duplicate of Duplicate of Hits: No CPE [1]: 1 | antiviral activity at lower concentrations (MPXV (2022 Clade IIb) [2]): potent antiviral activity

COc1cc2ncnc(Nc3ccc(F)c(Cl)c3)c2cc1OCCCN1CCOCC1 [Gefitinib]
Duplicate of Duplicate of Hits: No CPE [1]: 1 | cowpox virus replication (cowpox virus): reduce vaccinia and cowpox virus replication | vaccinia virus replication (vaccinia virus): reduce vaccinia and cowpox virus replication

CC(C)n1nc(-c2ccc3oc(N)nc3c2)c2c(N)ncnc21 [INK-128, Sapanisertib]
Duplicate of Duplicate of Hits: No CPE [1]: 1 | IC50 (MPXV (2022 Clade IIb) [3]): 27.1 nM | CC50 (in vitro): 353 nM | antiviral activity at lower concentrations (MPXV (2022 Clade IIb) [2]): potent antiviral activity | concentration at which toxicity was shown (VK2/E6E7 cells; human): 80 to 100 nM

CCNC(=O)N1CCc2cc(OC)c(OCCc3ccc(OC)c(N)c3)cc2C1c1ccc(OC)cc1C (centres unmarked) [KRAS inhibitor-10]
Duplicate of Duplicate of Hits: No CPE [1]: 1 | skin inflammation and lesions at Day 3 (MPXV [4]): some low-grade inflammation and lesions | skin inflammation and lesions at Day 12 (MPXV [4]): fully resolved | CC50 (VK2/E6E7 cells): > 1000 nM | nontoxic up to a concentration (VK2/E6E7 cells): ≤ 1000 nM

CN(C)C/C=C/C(=O)Nc1cc2c(Nc3ccc(F)c(Cl)c3)ncnc2cc1OC(F)F.O=C(O)/C=C\C(=O)O.O=C(O)/C=C\C(=O)O [Mefatinib]
Duplicate of Duplicate of Hits: No CPE [1]: 1 | antiviral activity at lower concentrations (MPXV (2022 Clade IIb) [2]): potent antiviral activity

O=C(Nc1ccc([N+](=O)[O-])cc1Cl)c1cc(Cl)ccc1O [Niclosamide]
Duplicate of Duplicate of Hits: No CPE [1]: 1 | IC50 (MPXV (2022 Clade IIb) [3]): 11.8 nM | CC50 (in vitro): 96.3 nM | viral inhibition compared to vehicle treatment (percent viral infectivity, Fig. 2B) (MPXV (2022 Clade IIb) [2]): strongest viral inhibition | concentration at which toxicity was shown (VK2/E6E7 cells; human): 80 to 100 nM

CCOc1cc2ncc(C#N)c(Nc3ccc(F)c(Cl)c3)c2cc1NC(=O)/C=C/CN(C)C [Pelitinib]
Duplicate of Duplicate of Hits: No CPE [1]: 1 | antiviral activity at lower concentrations (MPXV (2022 Clade IIb) [2]): potent antiviral activity

NC(=O)c1ncn([C@@H]2O[C@H](CO)[C@@H](O)[C@H]2O)n1 [Ribavirin]
MPXV replication in mouse models (MPXV [5]): block MPXV replication | MPXV replication in vitro (MPXV [6]): block MPXV replication | adverse effect in humans [7]: severe bone marrow suppression

O=C(Nc1ncc([N+](=O)[O-])s1)c1ccc([N+](=O)[O-])c(Cl)c1 [SM-7368]
Duplicate of Duplicate of Hits: No CPE [1]: 1 | skin inflammation and lesions at Day 3 (MPXV [4]): some low-grade inflammation and lesions | skin inflammation and lesions at Day 12 (MPXV [4]): fully resolved | antiviral activity at lower concentrations (MPXV (2022 Clade IIb) [2]): potent antiviral activity | CC50 (VK2/E6E7 cells): > 1000 nM | nontoxic up to a concentration (VK2/E6E7 cells): ≤ 1000 nM | viral protein in cell lysates (Western blot) (MPXV [8]): substantially reduced

O=C(NN1C(=O)[C@@H]2[C@@H]3C=C[C@@H]([C@H]4C[C@@H]34)[C@@H]2C1=O)c1ccc(C(F)(F)F)cc1 [Tecovirimat]
time to resolution of Mpox-related lesions (Mpox-related lesions): did not reduce the time to resolution of Mpox-related lesions | antiviral activity against MPXV Clade IIb (MPXV Clade IIb): did not exhibit strong antiviral activity

Nc1ccn(C[C@@H](CO)OCP(=O)(O)O)c(=O)n1 [cidofovir]
serious side effects in clinical trials [9]: kidney toxicity

IRAK4-IN-6
Duplicate of Duplicate of Hits: No CPE [1]: 1 | visible skin lesions or neutrophil infiltration (MPXV [4]): none of the mice in the IRAK4-IN-6-treated group had visible skin lesions or neutrophil infiltration | phospho-STING expression (phospho-STING): significantly increased | CC50 (VK2/E6E7 cells): > 1000 nM | nontoxic up to a concentration (VK2/E6E7 cells): ≤ 1000 nM | phospho-NF-κB expression (phospho-NF-κB): significantly increased | viral protein in cell lysates (Western blot) (MPXV [8]): substantially reduced

PI3K/mTOR Inhibitor-11
Duplicate of Duplicate of Hits: No CPE [1]: 1 | antiviral activity at lower concentrations (MPXV (2022 Clade IIb) [2]): potent antiviral activity | CC50 (VK2/E6E7 cells): 421 nM | concentration at which toxicity was shown (VK2/E6E7 cells): 80 to 100 nM
